How the values were obtained:
Format in all cases: in vivo, mouse
insulin [1] = assay: Experiment 2: high-fat diet with first compounds, plasma insulin ELISA; conditions: for Plasma Insulin, Females / Plasma Insulin, Males: high-fat diet 9 weeks, untreated = 100%, lysine 6.45%, OBS 4.3%, SPC 4.3% of food; for Plasma Insulin, Males: male mice
Description: (§1) Food and water were provided ad libitum.
(§2) Body mass and food consumption were monitored once a week for sixteen weeks. Prior to blood collection, animals were fasted for 4 hours to establish a physiological baseline. Blood was then collected from the retro-orbital plexus and processed using EDTA-K2-coated blood collection tubes (Milian Dutscher Group; Geneva, Switzerland). The resulting plasma was frozen and stored at −80° C. until used for analysis. A portion of each blood sample was used for blood glucose determination using an Abbott Freestyle Lite glucometer and glucose strips (Abbott Diabetes Care, Inc.; Alameda, Calif.). At the end of each study, animals were fasted and bled, as described above. The mice were then sacrificed, their overall body condition was assessed, and certain physiological parameters were measured. The inguinal and perigonadal fat pads, as well as liver of each mouse, were harvested by surgical resection, weighed, flash frozen, and stored at −80° C.
(§3) Enzyme-linked immunosorbent assay (ELISA) kits were obtained commercially and used to measure plasma levels of IGF-1 (R&D Systems; Minneapolis, Minn.), adiponectin (R&D Systems), FGF-21 (Millipore Corp.; Billerica, Mass.), leptin (R&D Systems), growth hormone (Millipore Corp.), and insulin (ALPCO Diagnostics; Salem, N.H.). Tests were performed according to the manufacturers' recommendations and measured using a Molecular Devices SpectraMax M5 Microplate Reader (Molecular Devices LLC; San Jose, Calif.). Two technical replicates were performed for each sample and the statistical significance of the resulting values determined by unpaired two-tailed t-tests using the software package Prism 8 (Graph-Pad Software; La Jolla, Calif.).

leptin [2] = assay: Experiment 2: high-fat diet with first compounds, plasma leptin ELISA; conditions: for Plasma Leptin, Females / Plasma Leptin, Males: high-fat diet 9 weeks, untreated = 100%, lysine 6.45%, OBS 4.3%, SPC 4.3% of food; for Plasma Leptin, Males: male mice
Description: as §1, §2, §3

C57BL/6J mice [3] = assay: Experiment 2: high-fat diet with first compounds, body mass and inguinal/perigonadal fat pad mass; conditions: for Total Body Mass, Females / Inguinal Fat Mass, Females / Perigonadal Fat Mass, Females / Total Body Mass, Males / Inguinal Fat Mass, Males / Perigonadal Fat Mass, Males: high-fat diet 9 weeks, untreated = 100%, lysine 6.45%; for Total Body Mass, Females / Total Body Mass, Males: O-benzyl serine 4.3%, S-phenyl cysteine 4.3% of food; for Inguinal Fat Mass, Females / Perigonadal Fat Mass, Females / Inguinal Fat Mass, Males / Perigonadal Fat Mass, Males: OBS 4.3%, SPC 4.3% of food; for Total Body Mass, Males / Inguinal Fat Mass, Males / Perigonadal Fat Mass, Males: male mice; for Total Body Mass, Males: tryptophan dose not given
Description: as §1
as §2, with “Prior” for “Body mass and food consumption were monitored once a week for sixteen weeks. Prior”

adiponectin [4] = assay: Experiment 2: high-fat diet with first compounds, plasma adiponectin ELISA; conditions: high-fat diet 9 weeks, untreated = 100%, lysine 6.45%, OBS 4.3%, SPC 4.3% of food; for Plasma Adiponectin, Females: female mice; for Plasma Adiponectin, Males: male mice
Description: as §1, §2, §3

IGF-1 [5] = assay: Experiment 2: high-fat diet with first compounds, plasma IGF-1 ELISA; conditions: for Plasma IGF-1, Females / Plasma IGF-1, Males: high-fat diet 9 weeks, untreated = 100%, lysine 6.45%, OBS 4.3%, SPC 4.3% of food; for Plasma IGF-1, Males: male mice
Description: as §1, §2, §3

FGF-21 [6] = assay: Experiment 2: high-fat diet with first compounds, plasma FGF-21 ELISA; conditions: untreated = 100%; for Plasma FGF-21, Females: female mice, high-fat diet 9 weeks, lysine 6.45%, OBS 4.3%, SPC 4.3% of food
Description: as §1, §2, §3

plasma glucose [7] = assay: Experiment 2: high-fat diet with first compounds, plasma glucose; conditions: for Plasma Glucose, Females / Plasma Glucose, Males: high-fat diet 9 weeks, untreated = 100%, lysine 6.45%, OBS 4.3%, SPC 4.3% of food; for Plasma Glucose, Males: male mice
Description: as §1, §2

leptin [8] = assay: Experiment 1: high-fat diet with selenium compounds, plasma leptin ELISA
Description: (§4) All animal studies conducted were approved by the Institutional Animal Care and Use Committee (IACUC) of the Orentreich Foundation for the Advancement of Science, Inc. (Permit Number: 0511 MB). C57BL/6J mice (stock number 000664) were purchased from the Jackson Laboratories (Bar Harbor, Me.) and housed in a conventional animal facility maintained at 20±2° C., 50±10% relative humidity, with a 12 hr/12 hr light/dark photoperiod. Food and water were provided ad libitum. Upon arrival, mice were acclimatized for up to one week and fed Purina Lab Chow 5001 (Ralston Purina, Co.; St. Louis, Mo.).
(§5) At the beginning of the experiment, the mice were divided into 5 groups with each group being fed one of five isocaloric (5.3 kcal/gm) high-fat diets ad libitum for several weeks. Each high-fat diet comprising a base of 12% kcal protein, 31% kcal carbohydrate, and 57% kcal fat. The first group's diet was the control-fed diet and included the base and methionine in an amount that represented about 0.86% of the weight of the food (sometimes referred to as “control group,” “control-fed group,” or “group 1”). […] Amounts of selenium-containing compounds used for this and subsequent experiments were determined from pilot studies aimed at identifying minimal doses that still achieve high efficacy. […]
(§6) Body mass and food consumption were monitored once a week for sixteen weeks. […] The mice were then sacrificed, their overall body condition was assessed, and certain physiological parameters were measured. […]
as §3, with “Two technical replicates were performed for each sample and the statistical significance of the resulting values determined by unpaired two-tailed t-tests using the software package Prism 8 (Graph-Pad Software; La Jolla, Calif.).” left out

insulin [9] = assay: Experiment 1: high-fat diet with selenium compounds, plasma insulin ELISA; conditions: untreated = 100%, sodium selenite 0.0073% of food
Description: as §4
(§7) At the beginning of the experiment, the mice were divided into 5 groups with each group being fed one of five isocaloric (5.3 kcal/gm) high-fat diets ad libitum for several weeks. Each high-fat diet comprising a base of 12% kcal protein, 31% kcal carbohydrate, and 57% kcal fat. […] Amounts of selenium-containing compounds used for this and subsequent experiments were determined from pilot studies aimed at identifying minimal doses that still achieve high efficacy. […]
as §6

IGF-1 [10] = assay: Experiment 1: high-fat diet with selenium compounds, plasma IGF-1 ELISA; conditions: sodium selenite 0.0073% of food
Description: as §4, §5, §6
as §3, with “Two technical replicates were performed for each sample and the statistical significance of the resulting values determined by unpaired two-tailed t-tests using the software package Prism 8 (Graph-Pad Software; La Jolla, Calif.).” left out

C57BL/6J mice [11] = assay: Experiment 1: high-fat diet with selenium compounds, body mass, fat pad and liver mass; conditions: high-fat diet, untreated = 100%, sodium selenite 0.0073% of food, selenomethionine 0.0036% or 0.0073% (which not stated)
Description: as §4
At the beginning of the experiment, the mice were divided into 5 groups with each group being fed one of five isocaloric (5.3 kcal/gm) high-fat diets ad libitum for several weeks. Each high-fat diet comprising a base of 12% kcal protein, 31% kcal carbohydrate, and 57% kcal fat. The first group's diet was the control-fed diet and included the base and methionine in an amount that represented about 0.86% of the weight of the food (sometimes referred to as “control group,” “control-fed group,” or “group 1”). The second group's diet was the methionine-restricted group where the base-diet was restricted to 0.12% methionine as a percentage of the total weight of the food (sometimes referred to as “methionine-restricted group” or “group 2”). The third group was fed the base diet containing 0.86% methionine, which was supplemented with sodium selenite in an amount representing 0.0073% of the total weight of the food (sometimes referred to as “sodium selenite-supplemented group” or “group 3”). The fourth group was fed the base diet containing 0.86% methionine, supplemented with 0.0036% selenomethionine, as a percentage of the total food weight (sometimes referred to as “group 4”). The fifth group was fed the base diet containing 0.86% methionine as a percentage of the total weight of the food, supplemented with 0.0073% selenomethionine as a percentage of the total weight of the food (sometimes referred to as “group 5”). Amounts of selenium-containing compounds used for this and subsequent experiments were determined from pilot studies aimed at identifying minimal doses that still achieve high efficacy. […] The amount of selenomethionine administered to the animals in the fourth and fifth groups was approximately 1/200 and 1/100 times respectively, of the levels of sulfur-containing amino acids (i.e., methionine and cysteine) present in the subjects' diets.
as §2

FGF-21 [12] = assay: Experiment 1: high-fat diet with selenium compounds, plasma FGF-21 ELISA; conditions: untreated = 100%, sodium selenite 0.0073% of food
Description: as §4, §7, §6

plasma glucose [13] = assay: Experiment 1: high-fat diet with selenium compounds, plasma glucose; conditions: untreated = 100%, sodium selenite 0.0073% of food
Description: as §4, §7, §6

adiponectin [14] = assay: Experiment 1: high-fat diet with selenium compounds, plasma adiponectin ELISA; conditions: untreated = 100%, sodium selenite 0.0073% of food
Description: as §4, §7, §6

[15] = female mice, 4.3% S-phenyl cysteine, high-fat diet, 9 week interval
[16] = female mice, 4.3% S-phenyl cysteine, high-fat diet, 9 week interval, p<0.001 vs untreated

SMILES | Plasma Insulin, Females (insulin [1]; female mice) | Plasma Insulin, Males (insulin [1]) | Plasma Leptin, Females (leptin [2]; female mice) | Plasma Leptin, Males (leptin [2]) | Total Body Mass, Females (C57BL/6J mice [3]; female mice) | Inguinal Fat Mass, Females (C57BL/6J mice [3]; female mice) | Perigonadal Fat Mass, Females (C57BL/6J mice [3]; female mice) | Total Body Mass, Males (C57BL/6J mice [3]) | Inguinal Fat Mass, Males (C57BL/6J mice [3]) | Perigonadal Fat Mass, Males (C57BL/6J mice [3]) | Plasma Adiponectin, Females (adiponectin [4]) | Plasma Adiponectin, Males (adiponectin [4]) | Plasma IGF-1, Females (IGF-1 [5]; female mice) | Plasma IGF-1, Males (IGF-1 [5]) | Plasma FGF-21, Females (FGF-21 [6]) | Plasma Glucose, Females (plasma glucose [7]; female mice) | Plasma Glucose, Males (plasma glucose [7]) | other results
NCCCC[C@H](N)C(=O)O [Lysine, lysine] | 41% | 22% | 28% | 13% | 72% | 38% | 37% | 91% | 42% | 34% | 125% | 92% | 66% | 68% | 144% | 73% | 84% | 
N[C@@H](Cc1c[nH]c2ccccc12)C(=O)O [Tryptophan, tryptophan] |  | 56% |  | 18% |  |  |  | 85% | 50% | 39% |  | 118% |  | 73% |  |  | 94% | Plasma FGF-21, Males (FGF-21 [6]; male mice, high-fat diet, tryptophan dose not given): 502%
N[C@@H](CSc1ccccc1)C(=O)O [S-Phenyl-Cysteine, S-phenyl cysteine] | 32% | 25% | 16% | 11% | 71% | 23% | 25% | 87% | 44% | 35% | 100% | 213% | 72% | 66% | 181% | 71% | 70% | plasma insulin level over time (FIG. 7B) (insulin [1]; [15]): maintenance of low insulin levels; plasma leptin level over time (FIG. 8B) (leptin [2]; [15]): maintenance of low plasma leptin levels; accumulation of inguinal and perigonadal adipose tissue (FIGS. 6A, 6B) (C57BL/6J mice [3]; [16]): robust protection against the accumulation of adipose tissue; total weight gain (FIG. 5) (C57BL/6J mice [3]; [16]): robust prevention of total weight gain; plasma IGF-1 level over time (FIG. 8A) (IGF-1 [5]; [15]): sustained reductions of plasma IGF-1 levels; plasma glucose level over time (FIG. 7A) (plasma glucose [7]; female mice, 4.3% S-phenyl cysteine, high-fat diet, 9 week interval, more efficacious than methionine restriction): maintenance of low plasma glucose
N[C@@H](COCc1ccccc1)C(=O)O [O-Benzyl-Serine, O-benzyl serine] | 37% | 28% | 20% | 12% | 69% | 27% | 25% | 89% | 42% | 31% | 106% | 108% | 79% | 72% | 280% | 71% | 93% | 
O=[Se](O)O [Sodium Selenite, sodium selenite] |  |  |  |  |  |  |  |  |  |  |  |  |  |  |  |  |  | Plasma Leptin, Females (leptin [8]; female mice, high-fat diet, untreated = 100%, sodium selenite 0.0073% of food): 17%; Plasma Leptin, Males (leptin [8]; male mice, high-fat diet, untreated = 100%, sodium selenite 0.0073% of food): 4%; reduction in circulating leptin as compared with controls (leptin [8]; male mice, sodium selenite-supplemented high-fat diet for 16 weeks): 96%; Plasma Insulin, Females (insulin [9]; female mice): 25%; Plasma Insulin, Males (insulin [9]; male mice): 19%; Plasma IGF-1, Females (IGF-1 [10]; female mice, untreated = 100%): 35%; Plasma IGF-1, Males (IGF-1 [10]; male mice, untreated = 100%): 63%; reduction of plasma IGF-1 levels as compared with control values (IGF-1 [10]; at the conclusion of experiment 1): 37%; Inguinal Fat Mass, Females (C57BL/6J mice [11]; female mice): 19%; Perigonadal Fat Mass, Females (C57BL/6J mice [11]; female mice): 20%; Total Body Mass, Females (C57BL/6J mice [11]; female mice, 16 weeks): 66%; Inguinal Fat Mass, Males (C57BL/6J mice [11]; male mice): 17%; Perigonadal Fat Mass, Males (C57BL/6J mice [11]; male mice): 20%; Total Body Mass, Males (C57BL/6J mice [11]; male mice, 16 weeks): 60%; Plasma FGF-21, Females (FGF-21 [12]; female mice): 3971%; Plasma FGF-21, Males (FGF-21 [12]; male mice): 3045%; Plasma Glucose, Females (plasma glucose [13]; female mice): 69%; Plasma Glucose, Males (plasma glucose [13]; male mice): 71%; Plasma Adiponectin, Females (adiponectin [14]; female mice): 134%; Plasma Adiponectin, Males (adiponectin [14]; male mice): 128%

From patent US20220105127A1, “METHODS FOR PROVIDING THE BENEFITS OF METHIONINE RESTRICTION WITHOUT DIETARY RESTRICTION” (priority 2020, published 2022)
